The text below walks through data of US7202239B2, “Cyclohexylphenyl carboxamides tocolytic oxytocin receptor antagonists” (Wyeth, priority 2001, dated 2007).

The target in the assay is T1, human oxytocin receptor (Homo sapiens, UniProt P30559).
T1 sequence (P30559 1-389): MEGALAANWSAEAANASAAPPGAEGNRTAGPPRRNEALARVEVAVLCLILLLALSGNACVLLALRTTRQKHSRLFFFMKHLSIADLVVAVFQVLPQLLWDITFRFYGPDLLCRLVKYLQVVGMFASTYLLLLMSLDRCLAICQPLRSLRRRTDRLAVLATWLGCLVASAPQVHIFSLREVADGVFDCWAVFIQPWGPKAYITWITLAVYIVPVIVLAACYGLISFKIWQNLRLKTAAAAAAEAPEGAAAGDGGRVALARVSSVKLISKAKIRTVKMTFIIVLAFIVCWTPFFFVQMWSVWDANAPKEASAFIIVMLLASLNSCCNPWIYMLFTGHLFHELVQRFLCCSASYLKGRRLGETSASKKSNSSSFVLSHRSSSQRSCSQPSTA
As to the kind of experiment: Oxytocin binding in CHO cell membranes expressing human oxytocin receptors. To be noted: 100 nM, [3H]oxytocin; for inhibition at 0.1 µM: read-out: OT % inhibition at 100 nM. The text has this:
Oxytocin Binding in Chinese Hamster Ovary Cell Membranes Expressing Human Oxytocin Receptors
Chinese Hamster Ovary (CHO) cells stably transfected with the human oxytocin receptor (cf. Tanizawa et al., U.S. Pat. No. 5,466,584 (1995) to Rohto Pharmaceutical Co. Ltd., Osaka, Japan) were obtained from M. Thibonnier, Case Western Reserve University School of Medicine, Cleveland, Ohio. A. Passaging and Amplification of Cells: CHO cells transfected with the human oxytocin receptors obtained from M. Thibonnier (pcDNA3.1 vector) are allowed to grow to confluency (approx. >90%) in T-150 flasks under sterile conditions, in a cell culture medium of F-12 Nutrient Mixture (HAM) with L-glutamine (Gibco Cat. # 11765-054) containing 15 mM HEPES (Gibco Cat. # 15630-080), 1% antibiotic/antimycotic (add 5 mL 100×, Gibco Cat. # 15240-062 per 500 mL F-12), 400 μg/mL of Geneticin (add 4 mL of 50 mg/mL per 500 mL F-12) and 10% Fetal Bovine Serum (Qualified, heat inactivated, Gibco Cat. # 16140-063). The medium is removed by aspiration and the cells are washed with 10 mL of Hank's Balanced Salt solution (Gibco Cat. # 14175-095). The salt solution is removed by aspiration and the cells trypsinized with 5 mL of trypsin-EDTA (0.05% trypsin, 0.53 mM EDTA-4Na, Gibco Cat. # 25300-070) for 1 min The trypsin is removed by aspiration and the cells dislodged by tapping. Cell Culture medium (e.g. 30 mL for 1:30 split) is immediately added and mixed well to inactivate trypsin. 1 mL of detached cells is added to new culture flasks containing fresh Cell Culture medium (e.g. into 25 mL per T-150 flask), and mixed gently. The cells are incubated at 37° C. in 5% CO2. The medium is changed at 3 to 4 days interval (or as appropriate). The cells grow to confluency (approx. >75%–95%) within 7–8 days. All steps are done under sterile conditions. B. Membrane Preparation: The cells are washed twice gently with Hank's Balanced Salt solution (eg, use 10 mL per T-150 flask). The excess solution is removed and the cells bathed for 15–30 min. in an enzyme-free Cell Dissociation Buffer (eg, use 8 mL Hank's Based, Gibco Cat. # 13150-016 per T-150 flask) until cells are loosened. The contents are transferred to centrifuge tubes (50 mL size) kept in ice bath. All subsequent steps are done at 4° C. The tubes are centrifuged at 300×g for 15 min (1380 rpm on SORVAL, Model RT6000D, using rotor for 50 mL tubes). The supernatant is discarded and the cells suspended in homogenizing buffer (10 mM Tris-HCl containing 0.25 M sucrose and 1 mM EDTA, pH 7.4) ensuring that the volume of the buffer is about ten times the volume of the cell pellet. The cells are pooled into a centrifuge tube (50 mL) and homogenized with a Polytron at setting 6 for 10 sec. The homogenate is transferred into a Potter-Elvjehm homogenizer and homogenized with 3 strokes. The homogenate is centrifuged at 1500×g for 10 min at 4° C. (3100 rpm using SORVAL, model RT6000D, using rotor for 50 mL tubes). The pellet is discarded. The supernatant is centrifuged at 100,000×g for 60 min. at 4° C. (Beckman L8-80M ultracentrifuge; spin at 37,500 rpm with rotor type 70 Ti for 50 mL tubes; 38,000 rpm with type 80Ti for 15 mL tubes; or 35,800 rpm with rotor type 45Ti). The supernantant is discarded and the pellet suspended in 3 to 4 mL of Tris buffer (50 mM TRIS-HCl, pH 7.4). The protein content is estimated by the Bradford or Lowry method. The volume of the membrane suspension is adjusted with the membrane buffer (50 mM Tris-HCl containing 0.1% BSA and 0.1 mM PMSF) to give 3.0 mg/mL (or as appropriate) of protein. The membranes are aliquoted and stored at −70° C. C. Radioligand Binding Assay: In wells of a 96-well format microtiter plate, is added 90, 110 or 130 μL (to make up a final volume of 200 μL) of assay buffer containing 50 mM of Tris-HCl (pH 7.4), […], 1 mg % aprotinin, 1 mg % leupeptin, 2 mg % 1,10-phenanthroline, 10 mg % trypsin inhibitor, and 0.1 mM PMSF. […]

As usually defined, the inhibition is the relative decrease from the control value, in per cent.

For `O=C(c1ccc2n1Cc1ccccc1N(C(=O)c1ccc(C3CCCCC3)cc1)C2)N1CCN(CCN2CCOCC2)CC1` [Example 42, [10(4-Cyclohexyl-benzoyl)-10,11-dihydro-5H-pyrrolo[2,1-c][1,4]benzodiazepin-3-yl]{4-[2-(4-morpholinyl)ethyl]-1-piperazinyl}methanone], the inhibition at 0.1 µM is 65%.

On to `C=CCN1CCN(C(=O)c2ccc3n2Cc2ccccc2N(C(=O)c2ccc(C4CCCCC4)cc2)C3)CC1` [Example 43, (4-Allyl-1-piperazinyl)[10-(4-cyclohexyl-benzoyl)-10,11-dihydro-5H-pyrrolo[2,1-c][1,4]benzodiazepin-3-yl]methanone], for which the inhibition at 0.1 µM was found to be 1%.

As for `CC(C)N1CCN(C(=O)c2ccc3n2Cc2ccccc2N(C(=O)c2ccc(C4CCCCC4)cc2)C3)CC1` [Example 44, [10-(4-Cyclohexyl-benzoyl)-10,11-dihydro-5H-pyrrolo[2,1-c][1,4]benzodiazepin-3-yl](4-isopropyl-1-piperazinyl)methanone], the inhibition at 0.1 µM stood at 2%.

On to `CN(C)CCCN1CCN(C(=O)c2ccc3n2Cc2ccccc2N(C(=O)c2ccc(C4CCCCC4)cc2)C3)CC1` [Example 45, [10-(4-Cyclohexyl-benzoyl)-10,11-dihydro-5H-pyrrolo[2,1-c][1,4]benzodiazepin-3-yl]{4-[3-(dimethylamino)propyl]-1-piperazinyl}methanone], for which the inhibition at 0.1 µM was 71%.

With `O=C(c1ccc(C2CCCCC2)cc1)N1Cc2ccc(C(=O)N3CCC[C@H]3CN3CCCC3)n2Cc2ccccc21` [Example 46, [10-(4-Cyclohexyl-benzoyl)-10,11-dihydro-5H-pyrrolo[2,1-c][1.4]benzodiazepin-3-yl][(2S)-2-(1-pyrrolidinylmethyl)pyrrolidinyl]methanone], the “OT % inhibition at 100 nM” value is recorded as 91%.

For `CN(C)[C@@H]1CCN(C(=O)c2ccc3n2Cc2ccccc2N(C(=O)c2ccc(C4CCCCC4)cc2)C3)C1` [Example 47, [10-(4-Cyclohexyl-benzoyl)-10,11-dihydro-5H-pyrrolo[2,1-C][1,4]benzodiazepin-3-yl][(3R)-3-(dimethylamino)pyrrolidinyl]methanone], the “OT % inhibition at 100 nM” value is on record as 82%.

Consider `O=C(c1ccc2n1Cc1ccccc1N(C(=O)c1ccc(C3CCCCC3)cc1)C2)N1CCN(CCO)CC1` [Example 48, [10-(4-Cyclohexyl-benzoyl)-10,11-dihydro-5H-pyrrolo[2,1-c][1,4]benzodiazepin-3-y][4-(2-hydroxyethyl)-1-piperazinyl]methanone], for which the “OT % inhibition at 100 nM” value is reported as 78%.

On to `O=C(NCCc1ccccn1)c1ccc2n1Cc1ccccc1N(C(=O)c1ccc(C3CCCCC3)cc1)C2` [Example 49, 10-(4-Cyclohexyl-benzoyl)-N-[2-(2-pyridinyl)ethyl]-10,11-dihydro-5H-pyrrolo[2,1-c][1,4]benzodiazepine-3-carboxamide], for which the inhibition at 0.1 µM was -2%.

As to `O=C(NCc1ccccn1)c1ccc2n1Cc1ccccc1N(C(=O)c1ccc(C3CCCCC3)cc1)C2` [Example 50, 10-(4-Cyclohexyl-benzoyl)-N-(2-pyridinylmethyl)-10,11-dihydro-5H-pyrrolo[2,1-c][1,4]benzodiazepine-3-carboxamide], the inhibition at 0.1 µM is -8%.

Take `O=C(NCc1cccnc1)c1ccc2n1Cc1ccccc1N(C(=O)c1ccc(C3CCCCC3)cc1)C2` [Example 51, 10-(4-Cyclohexyl-benzoyl)-N-(3-pyridinylmethyl)-10,11-dihydro-5H-pyrrolo [2,1-c][1,4]benzodiazepine-3-carboxamide]: the inhibition at 0.1 µM was -8%.

Consider `CN(CCc1ccccn1)C(=O)c1ccc2n1Cc1ccccc1N(C(=O)c1ccc(C3CCCCC3)cc1)C2` [Example 52, 10-(4-Cyclohexyl-benzoyl)-N-methyl-N-[2-(2-pyridinyl)-ethyl]-10,11-dihydro-5H-pyrrolo[2,1-c][1,4]benzodiazepine-3-carboxamide], for which the inhibition at 0.1 µM was determined as 45%.

Regarding `O=C(NCc1ccncc1)c1ccc2n1Cc1ccccc1N(C(=O)c1ccc(C3CCCCC3)cc1)C2` [Example 53, 10-(4-Cyclohexyl-benzoyl)-N-(4-pyridinylmethyl)-10,11-dihydro-5H-pyrrolo[2,1-c][1,4]benzodiazepine-3-carboxamide], the inhibition at 0.1 µM amounted to 25%.

As to `O=C(c1ccc2n1Cc1ccccc1N(C(=O)c1ccc(C3CCCCC3)cc1)C2)N1CCN(c2ccncc2)CC1` [Example 54, [10-(4-Cyclohexyl-benzoyl)-10,11-dihydro-5H-pyrrolo[2,1-c][1,4]benzpdiazepin-3-yl][4-(4-pyridinyl)-1-piperazinyl]-methanone], the “OT % inhibition at 100 nM” value stood at 4%.

On to `CN(CCc1ccncc1)C(=O)c1ccc2n1Cc1ccccc1N(C(=O)c1ccc(C3CCCCC3)cc1)C2` [Example 55, 10-(4-Cyclohexyl-benzoyl)-N-methyl-N-[2(4-pyridinyl)ethyl]-10,11-dihydro-5H-pyrrolo[2,1-c][1,4]benzodiazepine-3-carboxamide], for which the inhibition at 0.1 µM worked out at 91%.

In the case of `O=C(c1ccc(C2CCCCC2)cc1)N1Cc2ccc(C(=O)n3ccnc3)n2Cc2ccccc21` [Example 56, 1H-Imidazol-1-yl-[10-(4-cyclohexyl-benzoyl)-10,11-dihydro-5H-pyrrolo[2,1-c][1,4]benzodiazepin-3-yl]-methanone], the inhibition at 0.1 µM came to 61%.

On to `CN(Cc1cccnc1)C(=O)c1ccc2n1Cc1ccccc1N(C(=O)c1ccc(C3CCCCC3)cc1)C2` [Example 57, 10-(4-Cyclohexyl-benzoyl)-N-methyl-N-(3-pyridinylmethyl)-10,11-dihydro-5H-pyrrolo[2,1-c][1,4]benzodiazepine-3-carboxamide], for which the inhibition at 0.1 µM is -4%.
